What was measured:
[1] = target: T1, Platelet-activating factor acetylhydrolase (Homo sapiens, UniProt Q13093); experiment: Inhibitory activity against human lipoprotein associated phospholipase A2 (Lp-PLA2)
T1 sequence (Q13093 whole entry): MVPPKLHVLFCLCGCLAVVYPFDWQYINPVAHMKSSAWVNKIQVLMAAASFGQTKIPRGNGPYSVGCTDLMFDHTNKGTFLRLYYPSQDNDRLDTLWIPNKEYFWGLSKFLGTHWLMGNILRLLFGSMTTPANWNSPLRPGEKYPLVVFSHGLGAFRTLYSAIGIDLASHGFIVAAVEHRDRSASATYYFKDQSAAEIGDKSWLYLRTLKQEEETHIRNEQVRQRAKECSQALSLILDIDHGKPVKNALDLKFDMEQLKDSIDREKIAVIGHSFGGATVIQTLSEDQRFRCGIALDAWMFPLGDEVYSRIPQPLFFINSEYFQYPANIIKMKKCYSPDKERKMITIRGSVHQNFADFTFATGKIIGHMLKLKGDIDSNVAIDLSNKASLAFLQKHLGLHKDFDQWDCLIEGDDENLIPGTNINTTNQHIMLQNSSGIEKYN

Rattus norvegicus = species: Rattus norvegicus; experiment: Intrinsic clearance in rat liver microsomes; assay type: ADME, Microsome
Homo sapiens = species: Homo sapiens; experiment: Intrinsic clearance in human liver microsomes; assay type: ADME, Microsome

Row | SMILES | IC50 [1] | CLi (Rattus norvegicus) | CLi (Homo sapiens)
1 | Cc1ncc(Cc2cn(CC(=O)N3CCN(c4ccc(Cl)cc4)CC3)c(SCc3ccc(F)cc3)nc2=O)cn1 | 18 nM | 3 mL/min/g | 7 mL/min/g
2 | O=C(Cn1cc(Cc2cnc(C3CC3)nc2)c(=O)nc1SCc1ccc(F)cc1)N1CCN(c2ccc(Cl)cc2)CC1 | 21 nM | – | –
3 | O=C(Cn1cc(Cc2cncnc2)c(=O)nc1SCc1ccc(F)cc1)N1CCNCC1 | 460 nM | – | –
4 | O=C(Cn1cc(Cc2cncnc2)c(=O)nc1SCc1ccc(F)cc1)N1CCN(S(=O)(=O)c2ccccc2)CC1 | 260 nM | – | –
5 | O=C(Cn1cc(Cc2cncnc2)c(=O)nc1SCc1ccc(F)cc1)N1CCN(Cc2ccccc2)CC1 | 85 nM | – | –
6 | CCCCCCCC/C=C/CCCCCCCCNC(=O)CCCn1cc(Cc2cncnc2)c(=O)nc1SCc1ccc(F)cc1 | 0.4 nM | – | –
7 | O=C(Cn1cc(Cc2cncnc2)c(=O)nc1SCc1ccc(F)cc1)N1CCN(c2cncnc2)CC1 | 410 nM | – | –
8 | COc1ncc(Cc2cn(CCCC(=O)N3CCN(c4ccc(Cl)c(Cl)c4)CC3)c(SCc3ccc(F)cc3)nc2=O)cn1 | 2 nM | – | –
9 | COc1ncc(Cc2cn(CC(=O)N3CCN(c4ccc(Cl)cc4)CC3)c(SCc3ccc(F)cc3)nc2=O)cn1 | 20 nM | 2 mL/min/g | 3 mL/min/g
10 | O=C(O)Cn1cc(Cc2cn(CC(=O)N3CCN(c4ccc(Cl)cc4)CC3)c(SCc3ccc(F)cc3)nc2=O)cnc1=O | 89 nM | – | –
11 | O=C(Cn1cc(Cc2cncnc2)c(=O)nc1SCc1ccc(F)cc1)N1CCN(c2ccc(F)cc2)CC1 | 97 nM | – | –
12 | Cn1cc(Cc2cn(CC(=O)N3CCN(c4ccc(Cl)cc4)CC3)c(SCc3ccc(F)cc3)nc2=O)cnc1=O | 70 nM | 3 mL/min/g | 4 mL/min/g
13 | COc1ncc(Cc2cn(CCCC(=O)N3CCN(c4ccc(Cl)cc4)CC3)c(SCc3ccc(F)cc3)nc2=O)cn1 | 8 nM | 19 mL/min/g | > 50 mL/min/g
14 | CC(C)(C)c1ncc(Cc2cn(CC(=O)N3CCN(c4ccc(Cl)cc4)CC3)c(SCc3ccc(F)cc3)nc2=O)cn1 | 34 nM | – | –
15 | CCCCCCCCCCCCN(C)C(=O)Cn1cc(Cc2cnc(OC)nc2)c(=O)nc1SCc1ccc(F)cc1 | 1 nM | – | –
16 | O=C(Cn1cc(Cc2cncnc2)c(=O)nc1SCc1ccc(F)cc1)N1CCN(c2ccccc2)CC1 | 120 nM | – | –

The next lines start with the values.

Row | IC50 [1] | CLi (Rattus norvegicus) | CLi (Homo sapiens) | SMILES
17 | 29 nM | – | – | CN(C)c1ncc(Cc2cn(CC(=O)N3CCN(c4ccc(Cl)cc4)CC3)c(SCc3ccc(F)cc3)nc2=O)cn1
18 | 51 nM | – | – | Cn1cc(Cc2cn(CC(=O)N3CCN(c4ccc(Br)cc4)CC3)c(SCc3ccc(F)cc3)nc2=O)cn1
19 | 1280 nM | – | – | O=C(Cn1cc(Cc2cncnc2)c(=O)nc1SCc1ccc(F)cc1)N1CCN(C(=O)c2ccccc2)CC1
20 | 5 nM | – | – | Cn1cc(Cc2cn(CCCC(=O)N3CCN(c4ccc(C(F)(F)F)cc4)CC3)c(SCc3ccc(F)cc3)nc2=O)cn1
21 | 26 nM | – | – | O=C(Cn1cc(Cc2cncnc2)c(=O)nc1SCc1ccc(F)cc1)N1CCN(c2ccc(C(F)(F)F)cc2)CC1
22 | 2 nM | – | – | COc1ncc(Cc2cn(CCCC(=O)N3CCN(c4ccc(C(F)(F)F)cc4)CC3)c(SCc3ccc(F)cc3)nc2=O)cn1
23 | 9 nM | – | – | Cn1cc(Cc2cn(CCCC(=O)N3CCN(c4ccc(Cl)c(Cl)c4)CC3)c(SCc3ccc(F)cc3)nc2=O)cnc1=O
24 | 530 nM | – | – | Cn1cc(Cc2cn(CC(=O)N3CCN(Cc4ccccc4)C(=O)C3)c(SCc3ccc(F)cc3)nc2=O)cn1
25 | 44 nM | – | – | Cn1cc(Cc2cn(CC(=O)N3CCN(c4ccc(Cl)cc4)CC3)c(SCc3ccc(F)cc3)nc2=O)cn1
26 | 69 nM | – | – | O=C(Cn1cc(Cc2cnc(C(F)(F)F)nc2)c(=O)nc1SCc1ccc(F)cc1)N1CCN(c2ccc(Cl)cc2)CC1
27 | – | 2 mL/min/g | 7 mL/min/g | COc1ncc(Cc2cn(CC(=O)N3CCN(c4ccc(Cl)c(Cl)c4)CC3)c(SCc3ccc(F)cc3)nc2=O)cn1
28 | 3 nM | – | – | Cn1cc(Cc2cn(CCCC(=O)N3CCN(c4ccc(Cl)cc4)CC3)c(SCc3ccc(F)cc3)nc2=O)cn1
29 | 9 nM | – | – | O=C(O)Cn1cc(Cc2cn(CCCC(=O)N3CCN(c4ccc(Cl)c(Cl)c4)CC3)c(SCc3ccc(F)cc3)nc2=O)cnc1=O
30 | 350 nM | – | – | O=C(Cn1cc(Cc2cncnc2)c(=O)nc1SCc1ccc(F)cc1)N1CCN(c2ccccn2)CC1
31 | 720 nM | – | – | Cn1cc(Cc2cn(CC(=O)N3CCN(C4CCCCC4)CC3)c(SCc3ccc(F)cc3)nc2=O)cn1
32 | 130 nM | – | – | CC(=O)c1ccc(N2CCN(C(=O)Cn3cc(Cc4cncnc4)c(=O)nc3SCc3ccc(F)cc3)CC2)cc1
33 | 10 nM | 13 mL/min/g | > 50 mL/min/g | O=C(Cn1cc(Cc2cnc(N3CCOCC3)nc2)c(=O)nc1SCc1ccc(F)cc1)N1CCN(c2ccc(Cl)cc2)CC1
34 | 24 nM | – | – | CCCCCCCCN1CCN(C(=O)Cn2cc(Cc3cnn(C)c3)c(=O)nc2SCc2ccc(F)cc2)CC1
35 | 12 nM | 6 mL/min/g | 11 mL/min/g | Cn1cc(Cc2cn(CC(=O)N3CCN(c4ccc(Cl)c(Cl)c4)CC3)c(SCc3ccc(F)cc3)nc2=O)cn1
36 | 6700 nM | – | – | O=C(Cn1cc(Cc2cncnc2)c(=O)nc1SCc1ccc(F)cc1)N1CCN(c2ccccc2)C(=O)C1
37 | 66 nM | – | – | O=C(Cn1cc(Cc2cncnc2)c(=O)nc1SCc1ccc(F)cc1)N1CCN(c2cccc(Cl)c2)CC1
38 | 176 nM | – | – | COc1ccc(N2CCN(C(=O)Cn3cc(Cc4cncnc4)c(=O)nc3SCc3ccc(F)cc3)CC2)cc1

— ChEMBL document CHEMBL1133875, “1-(Arylpiperazinylamidoalkyl)-pyrimidones: orally active inhibitors of lipoprotein-associated phospholipase A(2)” (Bioorg Med Chem Lett, 2001)
